From ChEMBL document CHEMBL1150926, “A new meroditerpenoid dimer from an undescribed Philippine marine sponge of the genus Strongylophora” (J Nat Prod, 1998)
Converted amounts (≈) assume the structure as drawn. The source made the active and inactive calls. The rule behind the calls is not given here.

Columns and labels:
[1] = Toxicity against Artemia salina assessed as mortality after 48 hrs; format: organism-based; settings: in vivo
[2] = test system: Cladosporium cucumerinum; assay: Antifungal activity against Cladosporium cucumerinum at 0.80 umol after 2 days; format: functional
[3] = test system: Cladosporium cucumerinum; assay: Antifungal activity against Cladosporium cucumerinum at 0.10 umol after 2 days; format: functional
[4] = test system: Spodoptera littoralis; assay: Insecticidal activity against Spodoptera littoralis larvae assessed as inhibition of larval growth at 530 ppm treated in artificial diet after 6 days; format: functional; design: scale not given: the % may be the effect or the level left
[5] = test system: Spodoptera littoralis; assay: Insecticidal activity against Spodoptera littoralis larvae assessed as inhibition of larval growth treated in artificial diet after 6 days; format: functional, organism-based
[6] = test system: Micrococcus luteus; assay: Antibacterial activity against Micrococcus luteus at 100 ug/disk after 24 hrs by agar plate diffusion method; format: functional
[7] = test system: Salmonella typhi; assay: Antibacterial activity against Salmonella typhii at 100 ug/disk after 24 hrs by agar plate diffusion method; format: functional, Salmonella enterica subsp. enterica serovar Typhi
[8] = test system: Bacillus subtilis; assay: Antibacterial activity against Bacillus subtilis 168 at 100 ug/disk after 24 hrs by agar plate diffusion method; format: functional, organism-based; settings: subsp. subtilis str. 168
[9] = test system: Staphylococcus aureus; assay: Antibacterial activity against Staphylococcus aureus ATCC 25923 at 100 ug/disk after 24 hrs by agar plate diffusion method; format: functional, organism-based
[10] = test system: Escherichia coli; assay: Antibacterial activity against Escherichia coli ATCC 25922 at 100 ug/disk after 24 hrs by agar plate diffusion method; format: functional, organism-based

| SMILES | LC50 at 48 h [1] [µg/mL] | Activity [2] | Activity [3] | Activity [4] [%] | EC50 [5] [ppm] | Activity [6] | zone of inhibition at 100 µg/disc ([7]; Salmonella enterica, read-out: IZ) [mm] | Activity [8] | Activity [9] | Activity [10] | inhibition zone (IZ) [2] [mm] | inhibition zone (IZ) [3] [mm] | zone of inhibition at 100 µg/disc ([6]; read-out: IZ) [mm] | Activity ([7]; Salmonella enterica subsp. enterica serovar Typhi) |
| --- | --- | --- | --- | --- | --- | --- | --- | --- | --- | --- | --- | --- | --- | --- |
| C[C@]12CC[C@H]3[C@@](C)(CCC[C@@]3(C)C(=O)O)[C@@H]1CC[C@@]1(C)Oc3c(O)ccc(Oc4ccc5c(c4)C[C@H]4[C@]6(C)CC[C@@H]7[C@](C)(CCC[C@]7(C)C(=O)O)[C@H]6CC[C@]4(C)O5)c3C[C@H]21 [DISTRONGYLOPHORINE] | 10.5 (≈ 12.8 µM) | inactive | inactive | – | – | – | – | – | – | – | – | – | – | – |
| C[C@]12CCC[C@](C)(C(=O)O)[C@@H]1CC[C@]1(C)[C@@H]2CC[C@]2(C)Oc3ccc(O)cc3C[C@@H]12 [Strongylophorin-3] | 59.2 (≈ 143 µM) | – | – | 90 | 69 | inactive | 9 | inactive | inactive | inactive | 15 | 10 | – | – |
| C[C@@]12CC[C@@H]3[C@]4(CCC[C@@]3(C)C(=O)OC4)[C@H]1CC[C@]1(C)Oc3ccc(O)cc3C[C@@H]21 [strongylophorine-2] | 534 (≈ 1300 µM) | inactive | inactive | – | – | – | – | inactive | inactive | inactive | – | – | 7 | inactive |
| CC(=O)[C@@]1(C)CCC[C@]2(C)[C@H]3CC[C@]4(C)Oc5ccc(O)cc5C[C@H]4[C@]3(C)CC[C@H]21 [strongylophorine-4] | 143 (≈ 349 µM) | inactive | inactive | – | – | – | – | – | – | – | – | – | – | – |
